In US20260262643A1, “HERBICIDAL BENZOXAZINES” (FMC CORPORATION, priority 2022, published 2026):

Columns and labels:
corn = experiment: Test A preemergence; type: in vivo, Zea mays; conditions: Zea mays, pre-emergence, 240 h, visual injury after 10 days, 0 to 100 scale, 0 is no effect, 100 is complete control
Outline: (§1)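 Greenhouse pot test, 10 days. Compound (non-phytotoxic solvent, surfactant) sprayed on soil at seeding or on seedlings at one- to two-leaf stage. Visual injury rated 0–100 against untreated plants.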

pigweed, palmer = experiment: Test A preemergence; type: in vivo, Amaranthus palmeri; conditions: Amaranthus palmeri, pre-emergence, 240 h, visual injury after 10 days, 0 to 100 scale, 0 is no effect, 100 is complete control, read-out: Plant response rating, Pigweed, Palmer
Outline: as §1

ragweed [1] = experiment: Test A preemergence; type: in vivo, Ambrosia artemisiifolia; conditions: Ambrosia artemisiifolia, pre-emergence, 240 h, visual injury after 10 days, 0 to 100 scale, 0 is no effect, 100 is complete control, read-out: Plant response rating, Ragweed
Outline: as §1

soybean [2] = experiment: Test A preemergence; type: in vivo, Glycine max; conditions: Glycine max, pre-emergence, 240 h, visual injury after 10 days, 0 to 100 scale, 0 is no effect, 100 is complete control, read-out: Plant response rating, Soybean
Outline: as §1

wheat [3] = experiment: Test A preemergence; type: in vivo, Triticum aestivum; conditions: Triticum aestivum, pre-emergence, 240 h, visual injury after 10 days, 0 to 100 scale, 0 is no effect, 100 is complete control, read-out: Plant response rating, Wheat
Outline: as §1

foxtail, giant = experiment: Test A postemergence; type: in vivo, Setaria faberi; conditions: Setaria faberi, post-emergence, 240 h, postemergence, 10 days, 0 to 100 scale (0 no effect, 100 complete control)
Outline: as §1

goosegrass = experiment: Test A postemergence; type: in vivo, Eleusine indica; conditions: Eleusine indica, post-emergence, 240 h, postemergence, 10 days, 0 to 100 scale (0 no effect, 100 complete control)
Outline: as §1

oat, wild = experiment: Test A postemergence; type: in vivo, Avena fatua; conditions: Avena fatua, post-emergence, 240 h, postemergence, 10 days, 0 to 100 scale (0 no effect, 100 complete control)
Outline: as §1

ragweed [4] = experiment: Test A postemergence; type: in vivo, Ambrosia artemisiifolia; conditions: Ambrosia artemisiifolia, post-emergence, 240 h, postemergence, 10 days, 0 to 100 scale (0 no effect, 100 complete control)
Outline: as §1

ryegrass, Italian = experiment: Test A postemergence; type: in vivo, Lolium multiflorum; conditions: Lolium multiflorum, post-emergence, 240 h, postemergence, 10 days, 0 to 100 scale (0 no effect, 100 complete control)
Outline: as §1

soybean [5] = experiment: Test A postemergence; type: in vivo, Glycine max; conditions: Glycine max, post-emergence, 240 h, postemergence, 10 days, 0 to 100 scale (0 no effect, 100 complete control)
Outline: as §1

wheat [6] = experiment: Test A postemergence; type: in vivo, Triticum aestivum; conditions: Triticum aestivum, post-emergence, 240 h, postemergence, 10 days, 0 to 100 scale (0 no effect, 100 complete control)
Outline: as §1

galium = experiment: Test A postemergence; type: in vivo, Galium aparine; conditions: Galium, post-emergence, 240 h, postemergence, 10 days, 0 to 100 scale (0 no effect, 100 complete control)
Outline: as §1

sedge, umbrella = experiment: Test B flooded paddy test; type: in vivo, Cyperus difformis; conditions: Cyperus difformis, 312 h; 250 g ai/ha, Flood, 13 days, 0 to 100 scale (0 no effect, 100 complete control); read-out: Plant response rating, Sedge, Umbrella
Outline: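 Percent weed or crop control, judged by eye on a 0–100 scale 13 days post-treatment, reflects compound added to a 3 cm flood maintained over 2-leaf plants in the greenhouse. Missing entries are marked with a dash.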

Cc1cccc2c1O[C@@H](C)CN2C(=O)c1cccc(-n2cn[nH]c2=O)c1 [Compound 122, 4-[3-[[(2S)-2,3-Dihydro-2,8-dimethyl-4H-1,4-benzoxazin-4-yl]carbonyl]phenyl]-2,4-dihydro-3H-1,2,4-triazol-3-one]
60%: pest or weed control at 500 g/ha (goosegrass; 500 g ai/ha, visual injury, read-out: Plant response rating, Goosegrass)
50%: pest or weed control at 500 g/ha (foxtail, giant; 500 g ai/ha, visual injury, read-out: Plant response rating, Foxtail, Giant) | plant injury at 125 g/ha (soybean [5]; 125 g ai/ha, read-out: Soybean plant response rating) | pest or weed control at 125 g/ha (galium; 125 g ai/ha, read-out: Galium plant response rating) | pest or weed control at 500 g/ha (galium; 500 g ai/ha, visual injury, read-out: Plant response rating, Galium)
10%: Corn plant response rating (crop injury, 0 = no effect, 100 = complete kill) at 500 g/ha (corn; 500 g ai/ha) | plant injury at 125 g/ha (wheat [6]; 125 g ai/ha, read-out: Wheat plant response rating) | plant injury at 500 g/ha (wheat [6]; 500 g ai/ha, visual injury, read-out: Plant response rating, Wheat)
30%: pest or weed control at 500 g/ha (pigweed, palmer; 500 g ai/ha) | pest or weed control at 500 g/ha (ryegrass, Italian; 500 g ai/ha, visual injury, read-out: Plant response rating, Ryegrass, Italian)
0%: Corn plant response rating (crop injury, 0 = no effect, 100 = complete kill) at 125 g/ha (corn; 125 g ai/ha) | pest or weed control at 125 g/ha (pigweed, palmer; 125 g ai/ha) | pest or weed control at 125 g/ha (ragweed [1]; 125 g ai/ha) | pest or weed control at 500 g/ha (ragweed [1]; 500 g ai/ha) | plant injury at 125 g/ha (soybean [2]; 125 g ai/ha) | plant injury at 500 g/ha (soybean [2]; 500 g ai/ha) | plant injury at 125 g/ha (wheat [3]; 125 g ai/ha) | plant injury at 500 g/ha (wheat [3]; 500 g ai/ha) | pest or weed control at 125 g/ha (goosegrass; 125 g ai/ha, read-out: Goosegrass plant response rating) | pest or weed control at 125 g/ha (oat, wild; 125 g ai/ha, read-out: Oat, Wild plant response rating) | pest or weed control at 125 g/ha (ragweed [4]; 125 g ai/ha, read-out: Ragweed plant response rating) | pest or weed control at 500 g/ha (ragweed [4]; 500 g ai/ha, visual injury, read-out: Plant response rating, Ragweed) | pest or weed control at 125 g/ha (ryegrass, Italian; 125 g ai/ha, read-out: Ryegrass, Italian plant response rating) | pest or weed control at 250 g/ha (sedge, umbrella)
20%: pest or weed control at 125 g/ha (foxtail, giant; 125 g ai/ha, read-out: Foxtail, Giant plant response rating) | pest or weed control at 500 g/ha (oat, wild; 500 g ai/ha, visual injury, read-out: Plant response rating, Oat, Wild)
90%: plant injury at 500 g/ha (soybean [5]; 500 g ai/ha, visual injury, read-out: Plant response rating, Soybean)
